Reference: US10254285B2, “Methods for detecting and treating cancer metastasis” (Cedars-Sinai Medical Center, priority 2013, dated 2019)

Tests used:
WPMY-1 cells = test: Uptake of PKH26-labeled large oncosomes (LO) by recipient cells, FACS / fluorescent imaging; type: cell-based, human; conditions: WPMY-1 cells treated with PKH26-labeled LO for 1 h at 37° C. in presence of the compound
Protocol: As shown in FIG. 23 LO internalization differs between cells. LO isolation was performed using a filtration approach where the larger vesicles are retained by the filter and the smaller ones flow through. To test LO uptake, LO were labeled with a lipophilic dye, PKH26 and then used to treat target cells for 1 h at 37° C. LO uptake levels have been measured as the acquisition of fluorescence by target cells either by FACS or confocal imaging.
LO isolation was preformed using a filtration approach where the larger vesicles are retained by the filter and the smaller ones flow through. To test LO uptake LO were labeled with a lipophilic dye, PKH26 and then used to treat target cells for 1 h at 37° C. or 4° C. in presence or absence of the indicated compounds. LO uptake levels were measured as the acquisition of fluorescence by target cells either by FACS and fluorescent imaging. Dynamin2 silencing has been performed by transient transfection of WPMY-1 cells with an oligos against Dynamin2.

c-Myc = test: Luciferase reporter assay for c-Myc promoter activation in NAF; type: cell-based; conditions: NAF exposed to LO (20 μg/ml) in presence of Dyn (20 μM)
Protocol: LO and Exo isolation was performed by differential high-speed centrifugation (10,000×g and 100,000×g) followed discontinuous density gradient centrifugation. Conditioned media from LNCaPMyrAkt1 was used as source for LO and Exo. Nuclear extract from WPMY-1 cells treated with LO for the indicated time was used to perform the transcription factor activation profiling array from Signosis. Luciferase reporter assay for c-Myc promoter activation has been performed in NAF transfected with c-Myc promoter or vector plasmid treated with either LO or Exo 20 μg/ml for 6 h. RT-qPCR for c-Myc target cells in NAF treated with either LO or Exo 20 μg/ml for 6 h or 24 h.
LO and Exo isolation was performed by differential high-speed centrifugation (10,000×g and 100,000×g) followed by discontinuous density gradient centrifugation. Conditioned media from LNCaPMyrAkt1 was used as source for LO and Exo. […] After for 6 h-8 h tube formation rate is recorded by imaging, and quantified by counting the branching points in randomly chosen fields from each condition.

HUVEC = test: Tube formation assay in endothelial cells; type: cell-based; conditions: HUVECs treated with LO (20 μg/ml) in presence of Dyn
Protocol: (§1) LO and Exo isolation was performed by differential high-speed centrifugation (10,000×g and 100,000×g) followed by discontinuous density gradient centrifugation. Conditioned media from LNCaPMyrAkt1 was used as source for LO and Exo. Tube formation assay in endothelial cells, HUVEC treated with LO or Exo 20 μg/ml directly or with conditioned media from NAF previously exposed to either LO or Exo. After 6 h-8 h tube formation rate is recorded by imaging, and quantified by counting the branching points in randomly chosen fields from each condition.
as §1, with “Exo. Luciferase reporter assay for c-Myc promoter activation was performed in NAF transfected with c-Myc promoter or vector plasmid treated with either LO or Exo 20 μg/ml for 6 h in presence or absence of Dynasore 20 nM.” for “Exo.”, “directly in presence” for “directly”, “absence of Dynasore 20 nM.” for “with conditioned media from NAF previously exposed to either LO or Exo.”, “After for” for “After”

c-Myc activation induced by LO (luciferase reporter) (c-Myc) | Compound | LO uptake (internalization, mean fluorescent intensity) (WPMY-1 cells) | LO uptake (internalization, mean fluorescent intensity) (WPMY-1 cells; listed as Dyn) | tube formation (HUVEC)
 | C=C1[C@@H](C)[C@H]2[C@H](Cc3ccccc3)NC(=O)[C@]23[C@H](OC(C)=O)/C=C/[C@@](C)(O)C(=O)[C@@H](C)C/C=C/[C@H]3[C@@H]1O [cytochalasin D] | partially reduced |  | 
reverted | O=C(N/N=C/c1ccc(O)c(O)c1)c1cc2ccccc2cc1O [dynasore] | significantly reduced | inhibited | significantly inhibited
